Reference: article PMC4642672, “The GH5 1,4-β-mannanase from Bifidobacterium animalis subsp. lactis Bl-04 possesses a low-affinity mannan-binding module and highlights the diversity of mannanolytic enzymes” (BMC Biochemistry, 2015)

Assays:
BlMan5_8 = molecular target: T1, BlMan5_8 (Bifidobacterium animalis, UniProt B8DWU0); assay: surface plasmon resonance, steady state, enzyme immobilised by amine coupling; type: binding; details: 10 mM MES, 150 mM NaCl, 0.005% P20, pH 6.0, 25 °C, one-site fit
T1 construct: gene BLA_0648; mature enzyme without signal peptide (residues 1-29 removed), GH5_8 + C-terminal CBM10; N-terminal His6 tag cleaved by thrombin; E. coli BL21(DE3)
From the text: surface plasmon resonance, steady state, enzyme immobilised by amine coupling on BlMan5_8

BlMan5_8-ΔCBM10 = molecular target: T2, BlMan5_8-ΔCBM10 (Bifidobacterium animalis, UniProt B8DWU0); assay: as above; type: binding; details: 10 mM MES, 150 mM NaCl, 0.005% P20, pH 6.0, 25 °C; one-site fit; catalytic module
T2 construct: gene BLA_0648; catalytic GH5_8 module, C-terminal CBM10 deleted by stop codon at Ser338 in linker; signal peptide (1-29) removed; N-terminal His6 tag cleaved by thrombin; E. coli BL21(DE3)
From the text: surface plasmon resonance, steady state, enzyme immobilised by amine coupling on BlMan5_8-ΔCBM10

[1] = catalytic module and CBM10 both bind

T1 sequence (B8DWU0 entry or part of it): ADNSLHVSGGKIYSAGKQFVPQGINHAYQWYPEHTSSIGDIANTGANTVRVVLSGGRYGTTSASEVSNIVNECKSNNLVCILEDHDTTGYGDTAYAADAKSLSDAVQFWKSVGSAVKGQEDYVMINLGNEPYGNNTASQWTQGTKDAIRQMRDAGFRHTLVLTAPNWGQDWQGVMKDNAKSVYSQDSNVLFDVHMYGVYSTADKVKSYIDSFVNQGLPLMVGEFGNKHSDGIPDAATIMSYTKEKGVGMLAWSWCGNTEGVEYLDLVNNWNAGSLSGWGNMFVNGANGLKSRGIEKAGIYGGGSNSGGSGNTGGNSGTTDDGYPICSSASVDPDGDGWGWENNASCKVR
T2 sequence (B8DWU0 entry or part of it, stated change not applied): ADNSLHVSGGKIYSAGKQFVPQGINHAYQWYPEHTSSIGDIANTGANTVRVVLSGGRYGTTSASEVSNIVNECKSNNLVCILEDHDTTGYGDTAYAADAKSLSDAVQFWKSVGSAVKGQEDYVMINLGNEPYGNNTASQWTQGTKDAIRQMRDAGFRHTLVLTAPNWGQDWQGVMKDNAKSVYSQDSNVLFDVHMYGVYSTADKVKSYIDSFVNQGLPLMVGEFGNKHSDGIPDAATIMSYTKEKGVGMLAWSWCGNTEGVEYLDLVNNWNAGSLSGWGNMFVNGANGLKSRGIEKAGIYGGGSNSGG

Kd (BlMan5_8; CBM10 site suggested) [µM] | Kd (BlMan5_8-ΔCBM10) [µM] | Kd (BlMan5_8; [1]) [µM] | SMILES
5100 ± 800 |  |  | OC[C@H]1O[C@@H](O[C@H]2[C@H](O)[C@H](O)[C@H](O[C@H]3[C@H](O)[C@H](O)[C@H](O[C@H]4[C@H](O)[C@H](O)C(O)O[C@@H]4CO)O[C@@H]3CO)O[C@@H]2CO)[C@@H](O)[C@@H](O)[C@@H]1O (some centres unmarked) [M4, mannotetraose]
 | 1500 ± 300 | 3700 ± 300 | OC[C@H]1O[C@@H](O[C@H]2[C@H](O)[C@H](O)[C@H](O[C@H]3[C@H](O)[C@H](O)[C@H](O[C@H]4[C@H](O)[C@H](O)[C@H](O[C@H]5[C@H](O)[C@H](O)C(O)O[C@@H]5CO)O[C@@H]4CO)O[C@@H]3CO)O[C@@H]2CO)[C@@H](O)[C@@H](O)[C@@H]1O (some centres unmarked) [M5, mannopentaose]
 | 240 ± 420 | 580 ± 50 | OC[C@H]1O[C@@H](O[C@H]2[C@H](O)[C@H](O)[C@H](O[C@H]3[C@H](O)[C@H](O)[C@H](O[C@H]4[C@H](O)[C@H](O)[C@H](O[C@H]5[C@H](O)[C@H](O)[C@H](O[C@H]6[C@H](O)[C@H](O)C(O)O[C@@H]6CO)O[C@@H]5CO)O[C@@H]4CO)O[C@@H]3CO)O[C@@H]2CO)[C@@H](O)[C@@H](O)[C@@H]1O (some centres unmarked) [M6, mannohexaose]
